| melting point [°C] | Compound |
| --- | --- |
| 242 to 243 | Cc1ccc(S(=O)(=O)NS(=O)(=O)N2CCC(N3CCC(Oc4ccc(Cl)c(Cl)c4)CC3)CC2)cc1.[Na] |
| 223 | Cc1c(Cl)ccc(OC2CCN(C3CCN(S(=O)(=O)NC(=O)c4ccccc4)CC3)CC2)c1Cl [Example 5A, N-Benzoyl-4-(2,4-dichloro-3-methylphenoxy)-[1,4′-bipiperidine)-1′-sulfonamide] |
| 65 to 80 | O=C(NC(=O)N1CCC(N2CCC(Oc3ccc(Cl)c(Cl)c3)CC2)CC1)c1ccccc1 [Example 7A, N-Benzoyl-4-(3,4-dichlorophenoxy)-[1,4′-bipiperidine]-1′-carboxamide] |
| 166 to 167 | O=C(NS(=O)(=O)N1CCC(N2CCC(Oc3ccc(Cl)c(Cl)c3)CC2)CC1)c1ccc(Cl)c(Cl)c1 [Example 8A, N-(3,4-Dichlorobenzoyl)-4-(3,4-dichlorophenoxy)-(1,4′-bipiperidine]-1′-sulfonamide] |
| 200 | O=C(NS(=O)(=O)N1CCC(N2CCC(Oc3ccc(Cl)c(Cl)c3)CC2)CC1)c1c[nH]c(=O)c2ccccc12 [Example 11A, 4-(3,4-Dichlorophenoxy)-N-[(1,2-dihydro-1-oxo-4-isoquinolinyl)carbonyl]-[1,4′-bipiperidine]-1′-sulfonamide] |

Reference: patent US7307090B2, “Piperidine derivatives useful as modulators of chemokine receptor activity” (AstraZeneca AB, priority 2001, dated 2007)
